According to patent publication US6849732B2, “Metalloproteinase inhibitors, pharmaceutical compositions containing them and their pharmaceutical uses, and methods and intermediates useful for their preparation” (Agouron Pharmaceuticals, Inc., priority 1995, dated 2005):
Where a name gives a salt, the structure may show the parent alone. Read-outs that look alike come from different tables or passages of the source.

Columns and labels:
stromelysin (HSLN) = stromelysin (HSLN) (Homo sapiens, UniProt P08254); test: MCA fluorogenic enzyme assay, competitive inhibition analysis (Ki,app), stromelysin; format: biochemical
Chain of stromelysin (HSLN) (P08254 100-477): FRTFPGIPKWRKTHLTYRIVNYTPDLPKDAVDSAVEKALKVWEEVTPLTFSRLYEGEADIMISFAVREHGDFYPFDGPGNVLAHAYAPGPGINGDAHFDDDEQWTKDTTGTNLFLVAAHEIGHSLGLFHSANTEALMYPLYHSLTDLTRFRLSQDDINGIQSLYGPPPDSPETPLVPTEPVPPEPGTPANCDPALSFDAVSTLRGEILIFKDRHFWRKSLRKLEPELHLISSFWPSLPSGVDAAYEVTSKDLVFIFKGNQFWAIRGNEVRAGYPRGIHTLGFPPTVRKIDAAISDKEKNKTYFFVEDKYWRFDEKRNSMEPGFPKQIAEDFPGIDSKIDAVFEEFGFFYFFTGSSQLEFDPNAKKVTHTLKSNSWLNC

matrilysin (Matr.) = biological target: T1, matrilysin (Matr.) (Homo sapiens, UniProt P09237); test: MCA fluorogenic enzyme assay, competitive inhibition analysis (Ki,app), matrilysin; format: biochemical; details: MCA peptide substrate, 37° C., pH 7.5, read-out: Enzyme Inhibition Constants (K1) Matr.
T1 sequence (P09237 95-267): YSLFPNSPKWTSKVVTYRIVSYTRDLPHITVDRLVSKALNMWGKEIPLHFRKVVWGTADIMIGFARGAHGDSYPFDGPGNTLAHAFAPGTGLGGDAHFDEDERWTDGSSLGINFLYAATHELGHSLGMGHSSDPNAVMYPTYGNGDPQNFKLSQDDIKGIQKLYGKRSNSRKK
Description: Stromelysin enzymatic activity was measured using a modified version of a resonance energy transfer fluorogenic assay as described in FEBS, vol. 296(3), p. 263 (1992), the disclosure of which is incorporated herein by reference. The MCA-peptide substrate is shown below. The fluorescent MCA group is quenched by resonance energy transfer to the 2,4-dinitrophenyl group. Matrix metalloproteinases cleave this substrate at the Gly-Leu bond. Cleavage results in the loss of energy transfer and a large increase in fluorescence of the MCA group. [drawing 56] 7-methoxycoumarin-4-yl-acetyl-pro-leu-gly-leu-3-(2,4-dinitrophenyl)-L-2,3-diaminoproprionyl-ala-arg-NH2
The MCA assay was performed at 37° C. in buffer containing 50 mM Tricine (pH 7.5), 10 mM CaCl2, 200 mM NaCl, and 1% DMSO with the following concentrations of matrix metalloproteinases: 1.4 nM stromelyin, 0.063 nM matrilysin, and 0.030 nM gelatinase A. The concentration of MCA substrate was 10 or 20 μM in a final volume of 1.6 mL. Fluorescence data was collected with Perkin-Elmer LS-5B and LS-5B spectrofluorimeters with λexcitation=328 nm and λemission=393 nm. Spectrofluorimeters were interfaced with IBM-compatible microcomputer systems.
The Km for the MCA peptide substrate with the matrix metalloproteinases is quite high and exceeds its solubility under assay conditions. Consequently, the apparent Ki (Ki,app) was determined to describe the strength of inhibition. However, in this case, Ki,app would be essentially equal to Ki since [S]<<Km. For the determination of Ki,app, the concentration of the inhibitor was varied at a constant and low concentration of substrate and the steady-state rates of fluorescence change determined. In most cases absorptive quench due to the presence of ligand was not observed. For slow-binding inhibitors, onset of inhibition curves were collected for at least 45 minutes so that equilibrium was established. Steady-state rates of fluorescence change were obtained by fitting a curve to an equation for a single exponential decay containing a linear phase. The fitted value of the linear phase was taken as the steady-state rate. The steady-state rates were fitted to the Michaelis equation describing competitive inhibition by non-linear methods. Data resulting from tight-binding inhibition was analyzed, and Ki,app determined by fitting the data to the tight-binding equation of Morrison See (Biochem. Biophys. Acta, vol. 185, pp. 269-286 (1969)) by non-linear methods.

HFC = biological target: T2, HFC (Homo sapiens, UniProt P03956); test: MCA fluorogenic enzyme assay, competitive inhibition analysis (Ki,app), HFC; format: biochemical; details: MCA peptide substrate, 37° C., pH 7.5, read-out: Enzyme Inhibition Constants (K1) HFC
T2 sequence (P03956 100-469): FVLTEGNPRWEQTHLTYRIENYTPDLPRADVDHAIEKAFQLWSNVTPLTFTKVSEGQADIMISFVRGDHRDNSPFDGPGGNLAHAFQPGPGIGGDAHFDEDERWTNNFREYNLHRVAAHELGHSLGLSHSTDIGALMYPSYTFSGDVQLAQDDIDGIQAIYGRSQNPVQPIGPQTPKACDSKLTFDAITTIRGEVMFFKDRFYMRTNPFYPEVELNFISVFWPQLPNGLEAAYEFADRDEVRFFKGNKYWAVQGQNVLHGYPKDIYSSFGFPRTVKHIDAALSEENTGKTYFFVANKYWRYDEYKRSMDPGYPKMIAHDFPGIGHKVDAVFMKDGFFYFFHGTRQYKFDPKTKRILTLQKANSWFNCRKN

gelatinase A (HG72kD) = biological target: T3, gelatinase A (HG72kD) (Homo sapiens, UniProt P08253); test: MCA fluorogenic enzyme assay, competitive inhibition analysis (Ki,app), gelatinase A; format: biochemical; details: MCA peptide substrate, 37° C., pH 7.5, read-out: Enzyme Inhibition Constants (K1) HG72kD
T3 sequence (P08253 110-660): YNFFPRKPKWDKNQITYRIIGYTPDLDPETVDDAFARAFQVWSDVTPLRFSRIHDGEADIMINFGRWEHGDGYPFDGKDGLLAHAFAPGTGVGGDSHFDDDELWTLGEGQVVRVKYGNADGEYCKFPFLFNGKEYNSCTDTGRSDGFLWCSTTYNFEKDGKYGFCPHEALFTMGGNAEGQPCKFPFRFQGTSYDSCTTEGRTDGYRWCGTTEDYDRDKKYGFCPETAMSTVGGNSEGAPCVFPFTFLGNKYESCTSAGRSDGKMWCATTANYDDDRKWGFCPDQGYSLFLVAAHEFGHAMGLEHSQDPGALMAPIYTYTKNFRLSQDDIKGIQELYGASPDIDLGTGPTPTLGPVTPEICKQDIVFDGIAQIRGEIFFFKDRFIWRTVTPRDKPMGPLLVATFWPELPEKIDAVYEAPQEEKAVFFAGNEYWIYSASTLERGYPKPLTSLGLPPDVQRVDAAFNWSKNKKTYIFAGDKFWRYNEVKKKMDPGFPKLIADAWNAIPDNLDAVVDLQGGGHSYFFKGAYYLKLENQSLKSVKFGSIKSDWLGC

Coll3 = Coll3 (Homo sapiens, UniProt P45452); test: MCA fluorogenic enzyme assay, competitive inhibition analysis (Ki,app), Coll3; format: biochemical; details: MCA peptide substrate, 37° C., pH 7.5, read-out: Enzyme Inhibition Constants (K1) Coll3
[1] = test system: murine Lewis lung carcinoma (NIH) tumor line; test: Tumor model: subcutaneous Lewis lung carcinoma, primary tumor growth and lung metastases; format: in vivo, female BDF1 mice; details: 50 mg/kg; for Tumor Growth Delay / % Inhibition-Lung Metastases: i.p., daily, Day 1-Day 21; for Tumor Growth Delay: delay in reaching 1000 mm^3 tumor volume between control and treated animals; for % Inhibition-Lung Metastases: metastases counted 22 days after tumor implantation
Description: Primary subcutaneous tumors were established in female BDF1 mice by trocar inoculation of the murine Lewis lung carcinoma (NIH) tumor line. This tumor line produces spontaneous lung metastases which arise from the primary tumor. Primary tumor growth was monitored by measuring the length and width of the subcutaneous tumor using calipers; lung metastases were counted at the end of the experiment (22 days after tumor implantation) by removing the lungs and counting the lesions using a dissecting microscope. The test compound was administered daily, i.p., beginning 24 hours after tumor implantation (day 1) and continuing through day 21. Primary tumor volumes and number of lung metastases were compared to control animals using an ANOVA followed by a comparison of means using the F statistic. […] All drugs were administered at 50 mg/kg, i.p., daily, Day 1-Day 21.

[2] = Ki,app, MCA peptide substrate, 37° C., pH 7.5, read-out: Enzyme Inhibition Constants (K1) HSLN

Row | Compound | Ki (stromelysin (HSLN); [2]) | Ki (matrilysin (Matr.)) | Ki (HFC) | Ki (gelatinase A (HG72kD)) | Ki (Coll3) | Tumor Growth Delay [1] | % Inhibition-Lung Metastases [1] | tumor growth delay relative to control (significance, in words) ([1]; p<0.025) | number of lung metastases relative to the control (significance, in words) ([1]; p<0.05) | Ki (stromelysin (HSLN))
1 | O=C(NO)[C@H]1COCCN1S(=O)(=O)c1ccc(Oc2ccc(Cl)cc2)cc1 [8(a), 3(R)-N-hydroxy-4-(4-(4-chlorophenoxy)benzenesulfonyl)-morpholine-3-carboxamide] | 0.093 nM | 77 nM | 8.9 nM | 0.031 nM | 0.021 nM | -0.1 days | 7.5% | – | – | –
2 | O=C1C[C@H](C(=O)NO)N(S(=O)(=O)c2ccc(Oc3ccccc3)cc2)CN1 [Example 15(a), 6(R)-(N-hydroxycarbamoyl)-1-(4-phenoxy)benzenesulfonyl-tetrahydropyrimidin-4-one] | 4.6 nM | 1300 nM | 210 nM | 0.057 nM | 0.124 nM | – | – | – | – | –
3 | CC1(C)SCCN(S(=O)(=O)c2ccc(Oc3ccc(Br)cc3)cc2)[C@H]1C(=O)NO [Example 16(a), 3(S)-N-hydroxy-4-(4-(4-bromophenoxy)benzenesulfonyl)-2,2-dimethyl-tetrahydro-2H-1,4-thiazine-3-carboxamide] | 0.017 nM | 2.8 nM | 0.56 nM | 0.003 nM | 0.001 nM | – | – | – | – | –
4 | CS(=O)(=O)N1CCN(S(=O)(=O)c2ccc(Oc3ccc(Cl)cc3)cc2)[C@@H](C(=O)NO)C1 [Example 12(a), 2(R)-N-hydroxy-1-(4-(4-chlorophenoxy)benzenesulfonyl)-4-(methanesulfonyl)-piperazine-2-carboxamide] | 0.043 nM | 28 nM | 2.5 nM | 0.003 nM | 0.002 nM | – | – | – | – | –
5 | O=C(NO)[C@@H]1C[S@+]([O-])CCN1S(=O)(=O)c1ccc(Oc2ccc(Br)cc2)cc1 (racemic) [Example 14(a), 1(R/S),3(R/S)-N-hydroxy-1-oxo-4-(4-(4-bromophenoxy)benzene-sulfonyl)-tetrahydro-2H-1,4-thiazine-3-carboxamide] | 0.41 nM | 109 nM | 23 nM | 0.013 nM | 0.017 nM | – | – | – | – | –
6 | CC(C)(C)OC(=O)N1CCN(S(=O)(=O)c2ccc(Oc3ccc(C#N)cc3)cc2)C(C(=O)NO)C1 (racemic) [Example 9(c), 2(R/S)-N-hydroxy-1-(4-(4-cyanophenoxy)benzenesulfonyl)-4-(t-butoxycarbonyl)-piperazine-2-carboxamide] | 14 nM | 3570 nM | 580 nM | 0.696 nM | 1.97 nM | – | – | – | – | –
7 | Cn1cnc(S(=O)(=O)N2CCN(S(=O)(=O)c3ccc(Oc4ccc(Cl)cc4)cc3)[C@@H](C(=O)NO)C2)c1 [Example 12(d), 2 (R)-N-hydroxy-1-(4-(4-chlorophenoxy)benzenesulfonyl)-4-(1-methylimidazole-4-sulfonyl)-piperazine-2-carboxamide] | 0.09 nM | 40 nM | 7 nM | 0.004 nM | 0.006 nM | – | – | – | – | –
8 | CN1CCN(S(=O)(=O)c2ccc(Oc3ccc(Cl)cc3)cc2)[C@@H](C(=O)NO)C1 [Example 11(a), 2(R)-N-hydroxy-1-(4-(4-chlorophenoxy)benzenesulfonyl)-4-methyl-piperazine-2-carboxamide hydrochloride] | 0.67 nM | 993 nM | 130 nM | 0.025 nM | 0.02 nM | – | – | – | – | –
9 | CC(C)(C)OC(=O)N1CCN(S(=O)(=O)c2ccc(Oc3ccc(Cl)cc3)cc2)[C@@H](C(=O)NO)C1 [Example 9(a), 2(R)-N-hydroxy-1-(4-(4-chlorophenoxy)benzenesulfonyl)-4-(t-butoxycarbonyl)-piperazine-2-carboxamide] | 0.31 nM | 142 nM | – | 0.007 nM | 0.006 nM | 7.2 days (p < 0.025) | 77.6% (p < 0.05) | statistically significant | statistically significant | –
10 | O=C(NO)[C@H]1CNCCN1S(=O)(=O)c1ccc(Oc2ccc(F)cc2)cc1 [Example 10(b), 2(R)-N-hydroxy-1-(4-(4-fluorophenoxy)benzenesulfonyl)-piperazine-2-carboxamide hydrochloride] | 0.98 nM | 365 nM | 44 nM | 0.232 nM | 0.257 nM | – | – | – | – | –
11 | CC(C)(C)OC(=O)N1CCN(S(=O)(=O)c2ccc(Oc3ccccn3)cc2)C(C(=O)NO)C1 (racemic) [Example 9(d), 2(R/S)-N-hydroxy-1-(4-(pyrid-2-yl)oxybenzenesulfonyl)-4-(t-butoxycarbonyl)-piperazine-2-carboxamide] | 17 nM | 2850 nM | 550 nM | 0.716 nM | 1.64 nM | – | – | – | – | –
12 | 3(S)-4-(4-(4-(furan-3-yl)phenoxy)benzenesulfonyl-N-hydroxy-tetrahydro-2H-1,4-thiazine-3-carboxamide [Example 20] | 0.06 nM | 0.7 nM | 1.4 nM | 0.0017 nM | 0.002 nM | – | – | – | – | –
13 | CC1(C)SCCN(S(=O)(=O)c2ccc(Oc3ccccn3)cc2)[C@H]1C(=O)NO [Example 18(b), 3(S)-N-hydroxy-4-(4-((pyrid-2-yl)oxy)benzenesulfonyl)-2,2-dimethyl-tetrahydro-2H-1,4-thiazine-3-carboxamide] | – | 70 nM | 12 nM | 0.202 nM | 0.074 nM | – | – | – | – | 0.51 nM
